{"source": "the CheMixHub ionic liquid set", "assay": "xn = mol fraction of the nth substance listed", "settings": "for electrical conductivity: frequency 0.001 MHz", "note": "± gives the uncertainty stated by the source.", "data": [{"smiles": "CCCC[N+]1(C)CCCC1.O=S(=O)([N-]S(=O)(=O)C(F)(F)F)C(F)(F)F", "note": "+ CO", "values": [{"measurement": "electrical conductivity", "setting": "293.15 K, 101 kPa, x1 = 0.05", "value": "0.368 ± 0.057", "unit": "S/m"}, {"measurement": "electrical conductivity", "setting": "293.15 K, 101 kPa, x1 = 0.26", "value": "1.77 ± 0.039", "unit": "S/m"}, {"measurement": "electrical conductivity", "setting": "293.15 K, 101 kPa, x1 = 0.37", "value": "2.11 ± 0.03", "unit": "S/m"}, {"measurement": "viscosity", "setting": "293.15 K, 101 kPa, x1 = 0.05", "value": "1.02 ± 0.14", "unit": "mPa·s"}, {"measurement": "viscosity", "setting": "293.15 K, 101 kPa, x1 = 0.26", "value": "8.31 ± 0.54", "unit": "mPa·s"}, {"measurement": "viscosity", "setting": "293.15 K, 101 kPa, x1 = 0.37", "value": "12.95 ± 0.69", "unit": "mPa·s"}, {"measurement": "electrical conductivity", "setting": "298.15 K, 101 kPa, x1 = 0.26", "value": "1.93 ± 0.04", "unit": "S/m"}, {"measurement": "viscosity", "setting": "298.15 K, 101 kPa, x1 = 0.26", "value": "7.2 ± 0.46", "unit": "mPa·s"}, {"measurement": "electrical conductivity", "setting": "303.15 K, 101 kPa, x1 = 0.26", "value": "2.17 ± 0.05", "unit": "S/m"}, {"measurement": "electrical conductivity", "setting": "303.15 K, 101 kPa, x1 = 0.42", "value": "2.61 ± 0.03", "unit": "S/m"}, {"measurement": "viscosity", "setting": "303.15 K, 101 kPa, x1 = 0.26", "value": "6.29 ± 0.4", "unit": "mPa·s"}, {"measurement": "viscosity", "setting": "303.15 K, 101 kPa, x1 = 0.42", "value": "11.11 ± 0.54", "unit": "mPa·s"}, {"measurement": "electrical conductivity", "setting": "308.15 K, 101 kPa, x1 = 0.26", "value": "2.38 ± 0.049", "unit": "S/m"}, {"measurement": "electrical conductivity", "setting": "308.15 K, 101 kPa, x1 = 0.47", "value": "2.85 ± 0.035", "unit": "S/m"}, {"measurement": "electrical conductivity", "setting": "308.15 K, 101 kPa, x1 = 0.68", "value": "1.84 ± 0.051", "unit": "S/m"}, {"measurement": "viscosity", "setting": "308.15 K, 101 kPa, x1 = 0.26", "value": "5.53 ± 0.34", "unit": "mPa·s"}, {"measurement": "viscosity", "setting": "308.15 K, 101 kPa, x1 = 0.47", "value": "10.87 ± 0.49", "unit": "mPa·s"}, {"measurement": "viscosity", "setting": "308.15 K, 101 kPa, x1 = 0.68", "value": "16.54 ± 0.76", "unit": "mPa·s"}, {"measurement": "electrical conductivity", "setting": "313.15 K, 101 kPa, x1 = 0.32", "value": "2.79 ± 0.048", "unit": "S/m"}, {"measurement": "electrical conductivity", "setting": "313.15 K, 101 kPa, x1 = 0.53", "value": "2.91 ± 0.05", "unit": "S/m"}, {"measurement": "electrical conductivity", "setting": "313.15 K, 101 kPa, x1 = 0.68", "value": "2.08 ± 0.057", "unit": "S/m"}, {"measurement": "electrical conductivity", "setting": "313.15 K, 101 kPa, x1 = 0.74", "value": "1.8 ± 0.052", "unit": "S/m"}, {"measurement": "electrical conductivity", "setting": "313.15 K, 101 kPa, x1 = 0.84", "value": "1.29 ± 0.068", "unit": "S/m"}, {"measurement": "electrical conductivity", "setting": "313.15 K, 101 kPa, x1 = 1", "value": "0.488 ± 0.005", "unit": "S/m"}, {"measurement": "viscosity", "setting": "313.15 K, 101 kPa, x1 = 0.32", "value": "6.15 ± 0.33", "unit": "mPa·s"}, {"measurement": "viscosity", "setting": "313.15 K, 101 kPa, x1 = 0.53", "value": "10.55 ± 0.47", "unit": "mPa·s"}, {"measurement": "viscosity", "setting": "313.15 K, 101 kPa, x1 = 0.68", "value": "14.3 ± 0.65", "unit": "mPa·s"}, {"measurement": "viscosity", "setting": "313.15 K, 101 kPa, x1 = 0.74", "value": "16.1 ± 0.75", "unit": "mPa·s"}, {"measurement": "viscosity", "setting": "313.15 K, 101 kPa, x1 = 0.84", "value": "21.3 ± 1.1", "unit": "mPa·s"}, {"measurement": "viscosity", "setting": "313.15 K, 101 kPa, x1 = 1", "value": "35.7 ± 1.5", "unit": "mPa·s"}, {"measurement": "electrical conductivity", "setting": "318.15 K, 101 kPa, x1 = 0.21", "value": "2.4 ± 0.1", "unit": "S/m"}, {"measurement": "electrical conductivity", "setting": "318.15 K, 101 kPa, x1 = 0.63", "value": "2.55 ± 0.064", "unit": "S/m"}, {"measurement": "electrical conductivity", "setting": "318.15 K, 101 kPa, x1 = 0.68", "value": "2.27 ± 0.056", "unit": "S/m"}, {"measurement": "electrical conductivity", "setting": "318.15 K, 101 kPa, x1 = 0.79", "value": "1.7 ± 0.058", "unit": "S/m"}, {"measurement": "electrical conductivity", "setting": "318.15 K, 101 kPa, x1 = 0.84", "value": "1.43 ± 0.07", "unit": "S/m"}, {"measurement": "viscosity", "setting": "318.15 K, 101 kPa, x1 = 0.21", "value": "3.3 ± 0.25", "unit": "mPa·s"}, {"measurement": "viscosity", "setting": "318.15 K, 101 kPa, x1 = 0.63", "value": "11.22 ± 0.51", "unit": "mPa·s"}, {"measurement": "viscosity", "setting": "318.15 K, 101 kPa, x1 = 0.68", "value": "12.47 ± 0.57", "unit": "mPa·s"}, {"measurement": "viscosity", "setting": "318.15 K, 101 kPa, x1 = 0.79", "value": "15.95 ± 0.78", "unit": "mPa·s"}, {"measurement": "viscosity", "setting": "318.15 K, 101 kPa, x1 = 0.84", "value": "18.39 ± 0.93", "unit": "mPa·s"}, {"measurement": "viscosity", "setting": "318.15 K, 101 kPa, x1 = 0.95", "value": "25.2 ± 1.3", "unit": "mPa·s"}]}, {"smiles": "[Cl-].[Li+]", "note": "+ CCCCCCCCn1cc[n+](C)c1.N#C[S-] + CN1CCCC1=O", "values": [{"measurement": "viscosity", "setting": "298.15 K, 101 kPa, x2 = 0, x1 = 0.03756", "value": "2.607 ± 0.035", "unit": "mPa·s"}, {"measurement": "viscosity", "setting": "298.15 K, 101 kPa, x2 = 0, x1 = 0.07175", "value": "3.558 ± 0.046", "unit": "mPa·s"}, {"measurement": "viscosity", "setting": "298.15 K, 101 kPa, x2 = 0, x1 = 0.1044", "value": "4.958 ± 0.064", "unit": "mPa·s"}]}, {"smiles": "CCOP(=O)([O-])OCC.CC[n+]1ccn(C)c1", "note": "+ CC(C)O + O", "values": [{"measurement": "viscosity", "setting": "298.15 K, 100 kPa, x2 = 0.299, x3 = 0.3", "value": "79 ± 10", "unit": "mPa·s"}, {"measurement": "viscosity", "setting": "313.15 K, 100 kPa, x2 = 0.199, x3 = 0.2008", "value": "90 ± 12", "unit": "mPa·s"}, {"measurement": "viscosity", "setting": "323.15 K, 100 kPa, x2 = 0.099, x3 = 0.0998", "value": "94 ± 14", "unit": "mPa·s"}, {"measurement": "viscosity", "setting": "323.15 K, 100 kPa, x2 = 0.15, x3 = 0.1498", "value": "76 ± 10", "unit": "mPa·s"}]}, {"smiles": "[Cl-].[Li+]", "note": "+ CCCC[n+]1ccn(C)c1.N#C[S-] + CN1CCCC1=O", "values": [{"measurement": "viscosity", "setting": "298.15 K, 101 kPa, x2 = 0, x1 = 0.03819", "value": "2.63 ± 0.035", "unit": "mPa·s"}, {"measurement": "viscosity", "setting": "298.15 K, 101 kPa, x2 = 0, x1 = 0.07228", "value": "3.56 ± 0.046", "unit": "mPa·s"}, {"measurement": "viscosity", "setting": "298.15 K, 101 kPa, x2 = 0, x1 = 0.1042", "value": "4.958 ± 0.064", "unit": "mPa·s"}]}]}
